Experimental data published in ChEMBL document CHEMBL3758082, “Design, synthesis, and biological evaluation of crenatoside analogues as novel influenza neuraminidase inhibitors” (Eur J Med Chem, 2016).

How the values were obtained:
[1] = biological target: Neuraminidase (Influenza A virus) (UniProt B4URF0); test: Inhibition of Influenza A virus neuraminidase at 1000 ug/ml
Neuraminidase = Neuraminidase (Influenza A virus, UniProt B4URF0); test: Inhibition of Influenza A virus neuraminidase
Chain of Neuraminidase (B4URF0 whole entry): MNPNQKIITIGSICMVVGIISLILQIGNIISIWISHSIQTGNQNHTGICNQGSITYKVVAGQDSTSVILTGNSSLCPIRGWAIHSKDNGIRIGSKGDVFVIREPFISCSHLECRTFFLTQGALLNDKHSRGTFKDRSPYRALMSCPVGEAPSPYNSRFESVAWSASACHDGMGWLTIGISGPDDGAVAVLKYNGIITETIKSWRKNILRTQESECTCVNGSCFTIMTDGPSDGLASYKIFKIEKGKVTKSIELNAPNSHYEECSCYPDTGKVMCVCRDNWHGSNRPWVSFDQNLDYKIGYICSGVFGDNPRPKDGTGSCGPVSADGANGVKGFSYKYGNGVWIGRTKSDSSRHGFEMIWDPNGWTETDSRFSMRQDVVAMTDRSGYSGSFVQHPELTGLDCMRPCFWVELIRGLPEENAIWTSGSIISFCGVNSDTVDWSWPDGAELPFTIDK

Chain of Neuraminidase (Influenza A virus) (B4URF0 as listed by the source): as the sequence (B4URF0 whole entry) above

CC(C)[C@@H](N)C(=O)O[C@H]1[C@H](O)[C@@H](CO)O[C@H]2OC[C@H](c3ccccc3)O[C@@H]21
inhibition [1]: 16.6%

CSCC[C@@H](N)C(=O)O[C@H]1[C@H](O)[C@@H](CO)O[C@H]2OC[C@H](c3ccccc3)O[C@@H]21
inhibition [1]: 88.8% | IC50 (Neuraminidase): 216 µM

CC(C)[C@@H](N)C(=O)O[C@H]1[C@H](O)[C@@H](CO)O[C@H]2OC[C@@H](c3ccccc3)O[C@@H]21
inhibition [1]: 25.3%

O=C(/C=C/c1ccc(O)c(O)c1)O[C@H]1[C@H](O)[C@@H](CO)O[C@H]2OC[C@@H](c3ccccc3)O[C@@H]21
inhibition [1]: 97.4% | IC50 (Neuraminidase): 62.5 µM

COc1cccc(/C=C/C(=O)O[C@H]2[C@H](O)[C@@H](CO)O[C@H]3OC[C@@H](c4ccccc4)O[C@@H]32)c1
inhibition [1]: 95.9% | IC50 (Neuraminidase): 67 µM

OC[C@H]1O[C@H]2OC[C@@H](c3ccccc3)O[C@@H]2[C@@H](O)[C@@H]1O
inhibition [1]: 16.8%

CSCC[C@@H](N)C(=O)O[C@H]1[C@H](O)[C@@H](CO)O[C@H]2OC[C@@H](c3ccccc3)O[C@@H]21
inhibition [1]: 90.3% | IC50 (Neuraminidase): 189 µM

O=C(/C=C/c1ccc(O)cc1)O[C@H]1[C@H](O)[C@@H](CO)O[C@H]2OC[C@@H](c3ccccc3)O[C@@H]21
inhibition [1]: 66.7% | IC50 (Neuraminidase): 182 µM

C[C@@H]1O[C@@H](O[C@H]2[C@H](O)[C@@H](CO)O[C@H]3OC[C@H](c4ccccc4)O[C@@H]32)[C@H](O)[C@H](O)[C@H]1O
inhibition [1]: 8.28%

O=C(/C=C/c1ccccc1)O[C@H]1[C@H](O)[C@@H](CO)O[C@H]2OC[C@H](c3ccccc3)O[C@@H]21
inhibition [1]: 17.6%

C[C@@H]1O[C@@H](O[C@@H]2[C@H]3O[C@@H](c4ccc(O)c(O)c4)CO[C@@H]3O[C@H](CO)[C@H]2OC(=O)/C=C/c2ccc(O)c(O)c2)[C@H](O)[C@H](O)[C@H]1O [CRENATOSIDE]
inhibition [1]: 89.2% | IC50 (Neuraminidase): 144 µM

O=C(/C=C/c1ccc(O)cc1)O[C@H]1[C@H](O)[C@@H](CO)O[C@H]2OC[C@H](c3ccccc3)O[C@@H]21
inhibition [1]: 65% | IC50 (Neuraminidase): 229 µM

O=C(/C=C/c1ccccc1)O[C@H]1[C@H](O)[C@@H](CO)O[C@H]2OC[C@@H](c3ccccc3)O[C@@H]21
inhibition [1]: 29.8%

C[C@@H]1O[C@@H](O[C@H]2[C@H](O)[C@@H](CO)O[C@H]3OC[C@@H](c4ccccc4)O[C@@H]32)[C@H](O)[C@H](O)[C@H]1O
inhibition [1]: 11.7%

C[C@@H]1O[C@@H](O[C@H]2[C@H](O)[C@@H](COC(=O)/C=C/c3ccc(O)c(O)c3)O[C@H]3OC[C@H](c4ccc(O)c(O)c4)O[C@@H]32)[C@H](O)[C@H](O)[C@H]1O [ISOCRENATOSIDE]
inhibition [1]: 86.3% | IC50 (Neuraminidase): 186 µM

OC[C@H]1O[C@H]2OC[C@H](c3ccccc3)O[C@@H]2[C@@H](O)[C@@H]1O
inhibition [1]: 3.9%

O=C(/C=C/c1ccc(O)c(O)c1)O[C@H]1[C@H](O)[C@@H](CO)O[C@H]2OC[C@H](c3ccccc3)O[C@@H]21
inhibition [1]: 94.1% | IC50 (Neuraminidase): 67.3 µM

COc1cccc(/C=C/C(=O)O[C@H]2[C@H](O)[C@@H](CO)O[C@H]3OC[C@H](c4ccccc4)O[C@@H]32)c1
inhibition [1]: 91.2% | IC50 (Neuraminidase): 97 µM
